The values below come from PMC11013252, “Exploration of the Antibacterial and Anti-Inflammatory Activity of a Novel Antimicrobial Peptide Brevinin-1BW” (Molecules, 2024).

In brackets after ≈: the same amount, converted by molar mass. Positions of bridges follow the written chain, without caps; N, C: chain ends. Residues, ends and D or L forms follow the SMILES beside them. Some results are limits rather than exact numbers.

The CC50 is the concentration that lowers cell viability or growth by half.

Series [1] has as its system C. koseri (CI 1611SED223). Briefly: microbe, parasite or virus in culture. It counts as cell-based, Citrobacter koseri. To be noted: 18 h. How it is done: (§1) The minimum inhibitory concentration (MIC) of the Brevinin-1BW was measured in 96-well microtiter plates according to the Clinical and Laboratory Standards Institute (CLSI). The activated strains were treated with Mueller Hinton Agar (MHA) solid medium. Single colonies were picked and expanded to the logarithmic growth phase, and the solution was diluted to 2 × 10^6 CFU/mL using the McFarland turbidity standard. The MIC was determined with the two-fold dilution method. Briefly, 50 μL of Mueller Hinton (MH) medium was added to a 96-well plate in advance. Then, 50 μL of AMP solution was added to the first well, and 50 μL was pipetted into the next well after mixing using a row gun, while 50 μL was discarded from the last well. Final concentrations of Brevinin-1BW were 100, 50, 25, 12.5, 6.25, and 3.125 μg/mL. A 50 μL volume of the diluted bacterial solution was added, and the final concentration of the bacterial solution was 1 × 10^6 CFU/mL. This was then placed into a 37 °C incubator for 18 h until the next day to observe the degree of turbidity of the 96-well plate and measure the absorbance of the wells at 600 nm with a multifunctional microplate reader (SpectraMax iD5, Molecular Devices, Sunnyvale, CA, USA). The absence of turbidity and the measured concentration of absorbance being less than the opposing group was taken as the MIC. The positive control used ampicillin at the same final concentration as Brevinin-1BW, the negative control used 50 μL of MH medium mixed with 50 μL of 2 × 10^6 CFU/mL bacterial solution, and the blank contained only 100 μL of MH medium. Three replicate wells were set up for each experiment, and each experiment was repeated three times. The MIC and all concentrations above the MIC of bacterial solution coated on MHA solid medium were placed into 37 °C incubator incubation for 18 h. The lowest concentration resulting in no colony growth was taken as the minimum bactericidal concentration (MBC).

The subject of series [2] is S. saprophytics (ATCCBAA750). Briefly: microbe, parasite or virus in culture. The class given is cell-based, Staphylococcus saprophyticus. The settings on record: ATCCBAA750, 18 h. How it is done: as §1
The subject of series [3] is E. coli (ATCC25922). Briefly: microbe, parasite or virus in culture. To be noted: ATCC25922, 18 h. The class given is cell-based. On the procedure:
as §1

Series [4] is described as follows: ABTS radical scavenging. To be noted: at 200 μg/mL, room temperature, 6 min, absorbance 734 nm. On the procedure:
ABTS^+ scavenging capacity: A 7 mM ABTS (Med Chem Express, NJ, USA) solution and 140 mM potassium persulfate (Aladdin, Shanghai, China) solution were prepared. A 5 mL volume of ABTS was taken and mixed with 88 μL of potassium persulfate before being placed in the dark at room temperature for 14 h to form the ABTS radical stock solution. The ABTS radical stock solution was then diluted with 95% ethanol by volume to reach an OD734 nm = 0.7. Then, 10 μL of Brevinin-1BW solution was mixed with 50 μL of ABTS radical stock solution, and the resulting absorbance was measured at 734 nm for 6 min at room temperature, which was recorded as A1. The absorbance of 95% ethanol was measured as A2. The same concentration of vitamin C was used as the positive control. The clearance was calculated according to the following equation: ABTS^+ Clearance Rate%=(A2−A1)/A2×100

Series [5] relates to S. aureus (MDR ATCC29213). Briefly: microbe, parasite or virus in culture. It counts as cell-based, Staphylococcus aureus. The settings on record: ATCC29213, 18 h. On the procedure: as §1
Series [6] has as its system S. aureus (ATCC25923). Briefly: microbe, parasite or virus in culture. The class given is cell-based, Staphylococcus aureus. How it is done:
as §1

The test system of series [7] is IL-1β. Briefly: Cytokine release in LPS-treated RAW264.7 cells, ELISA. It counts as cell-based, mouse. The settings on record: 4 μg/mL peptide, 1 μg/mL LPS, RAW264.7, 24 h, ELISA of supernatant. How it is done:
RAW 264.7 mouse macrophages were cultured in DMEM medium (Gibco, New York, NY, USA). containing 10% FBS (TransGen Biotech, Beijing, China) and 1% penicillin-streptomycin (Biosharp, Guangzhou, China) and were seeded into 6-well plates at a cell density of 10^5 cells/mL. After cell adhesion, 1 μg/mL LPS (Solarbio, Beijing, China) and different concentrations of Brevinin-1BW (0, 1, 2, 3, and 4 μg/mL) were incubated for 24 h. Culture supernatants were collected, and the contents of TNFα, IL-6, and IL-1β were determined with enzyme-linked immunosorbent assay (BOSTER, Wuhan, China). All cells were washed twice with precooled PBS, total cellular RNA was extracted using the RNAsimple Total RNA Extraction kit (TIANGEN, Beijing, China), and total RNA concentration and purity were determined using a Thermo Fisher NanoDropOne nucleic acid protein spectrophotometer. HiScript II 1st Strand cDNA Synthesis Kit (Vazyme, Nanjing, China) synthesized cDNA, and we performed real-time PCR using Hieff® qPCR SYBR Green Master Mix (No Rox) (YEASEN, Shanghai, China). The primer sequences for Beta-actin (β-Actin), interleukins (IL-6, IL-1β), tumor necrosis factor (TNF-α), and nitric oxide synthase (iNOS) are shown in Table 6. Cells incubated without peptide and/or LPS were used as negative control. All experiments were repeated three times.
(In an ELISA, binding on a coated surface is turned into a signal by an enzyme label.)

Series [8] concerns RAW264.7. The class given is cell-based, mouse. To be noted: 24 h. On the procedure:
Medium was prepared to contain 10% FBS (TransGen Biotech, China) and 1% penicillin-streptomycin (Biosharp, Guangzhou, China). A549, U-2OS, HePG2, HaCaT, HUVEC, and 293T cells were cultured in DMEM medium (Gibco, New York, NY, USA). A375, HCT116, Hela, and RAW264.7 cells were cultured in RPMI 1640 medium (Gibco, New York, NY, USA). The cytotoxicity of Brevinin-1BW was determined using the Cell Counting Kit-8 as follows: detached the cells from cell culture flasks with 0.25% trypsin, counted with a hemocytometer plate and then prepared into a cell suspension containing 5 × 10^3 cells/mL. Then, 90 μL of the cell suspension was inoculated into a 96-well plate and incubated at 37 °C in a 5% CO2-humidified atmosphere for 24 h. A 10 μL volume of the peptide was subsequently added to each well and co-incubated with the cells for 24 h. Then, 10 μL of CCK8 (Abbkine, Wuhan, China) was added to each well and incubated for a further 2 h. The absorbance of each well at 450 nm was measured using a multifunctional enzyme marker. […] Three replicate wells were set up for each experiment, and each experiment was repeated three times. The formula for calculating the cell viability is shown below.

For series [9], the system named is S. epidermidis (CI 1607BL1D39). Briefly: microbe, parasite or virus in culture. It counts as cell-based, Staphylococcus epidermidis. The settings on record: CI 1607BL1D39, 18 h. How it is done:
as §1

As for `CC[C@H](C)[C@@H]1NC(=O)[C@H](CCCCN)NC(=O)[C@@H](NC(=O)[C@H](Cc2ccccc2)NC(=O)[C@@H](NC(=O)[C@@H](NC(=O)[C@@H]2CCCN2C(=O)[C@H](CC(C)C)NC(=O)[C@H](Cc2ccccc2)NC(=O)[C@H](CO)NC(=O)[C@H](C)NC(=O)[C@H](C)NC(=O)[C@H](CC(C)C)NC(=O)CNC(=O)[C@H](C)NC(=O)[C@H](CC(C)C)NC(=O)[C@H](CC(C)C)NC(=O)[C@@H]2CCCN2C(=O)[C@H](CC(C)C)NC(=O)[C@@H](N)Cc2ccccc2)[C@@H](C)O)[C@@H](C)CC)CSSC[C@@H](C(=O)O)NC(=O)[C@H](CCCCN)NC(=O)[C@H](CCCNC(=N)N)NC(=O)[C@H](CO)NC1=O` [Brevinin-1BW] (H-FLPLLAGLAASFLPTIFCKISRKC-OH; disulfide 18-24), the MBC was more than 100 µg/mL in series [1]; 12.5 µg/mL (≈ 4.79 µM) in [2]; more than 100 µg/mL in series [3]; 25 µg/mL (≈ 9.58 µM) in [5]; 6.25 µg/mL (≈ 2.4 µM) in series [6] (ATCC25923, 18 h); 25 µg/mL (≈ 9.58 µM) in series [9]. The MIC in series [1] was determined as 50 µg/mL (≈ 19.2 µM); in series [2] it was 6.25 µg/mL (≈ 2.4 µM); in series [3], 100 µg/mL (≈ 38.3 µM); in [5], 6.25 µg/mL (≈ 2.4 µM); in series [6] (ATCC25923, 18 h) it was 6.25 µg/mL (≈ 2.4 µM); in series [9] it was 12.5 µg/mL (≈ 4.79 µM). In addition, the ABTS radical scavenging result in series [4] is given as “less than 20%”. Further, in series [6] (S. aureus, at 6.25 μg/mL), the reduction of viability was 99.9%. Also, the “decrease of IL-1β release” value in series [7] was 91.46%. The CC50 in series [8] stood at 32.33 ± 0.47 µg/mL (≈ 12.4 µM).
